Reference: patent US9682938B2, “Pyrazolone derivatives as nitroxyl donors” (Cardioxyl Pharmaceuticals, Inc., priority 2014, dated 2017)

Legend:
Type in all cases: in vitro ADME
[1] = In vitro plasma stability, dog plasma; conditions: male, pH 7.4, 5 μM, 37° C., sampling 0-360 minutes, read-out: T1/2 Dog
Procedure: (§1) Certain compounds from Table 1 were tested for their stability in plasma. The assay system comprised plasma from rat, dog or human (at least 3 donors, male, pooled) at pH 7.4, and (ii) an anticoagulant (sodium heparin or sodium citrate). Each test compound (5 μM) was incubated in plasma at 37° C. on a THERMOMIXER® with shaking. Three samples (n=3) were taken at each of seven sampling time points: 0, 10, 30, 60, 90, 180 and 360 minutes. The samples were immediately combined with 3 volumes (i.e., 3 times the volume of plasma) of acetonitrile containing 1% formic acid and an internal standard to terminate the reaction. AB SCIEX API 3000 LC-MS/MS analysis of the test compounds was performed without a standard curve. Plasma half-lives (T1/2) of the test compounds were determined from graphs of the percent remaining values using the peak area response ratio.

[2] = In vitro plasma stability, rat plasma; conditions: male, pH 7.4, 5 μM, 37° C., sampling 0-360 minutes, read-out: T1/2 Rat
Procedure: as §1

[3] = In vitro plasma stability, human plasma; conditions: male, pH 7.4, 5 μM, 37° C., sampling 0-360 minutes, read-out: T1/2 Human
Procedure: as §1

Row | half-life at 5 μM [1] | half-life at 5 μM [2] | half-life at 5 μM [3] | SMILES
1 | 114 min | 44 min | 55 min | CN1N=C(c2cccc(C(F)(F)F)c2)C(C)(NO)C1=O (stereo not drawn) [Compound 22, 4-(hydroxyamino)-2,4-dimethyl-5-(3-(trifluoromethyl)phenyl)-2,4-dihydro-3H-pyrazol-3-one]
2 | 120 min | 136 min | 104 min | CC(C)(C)C1=NN(c2ccccc2)C(=O)C1(C)NO (stereo not drawn) [Compound 23, 5-(tert-butyl)-4-(hydroxyamino)-4-methyl-2-phenyl-2,4-dihydro-3H-pyrazol-3-one]
3 | 16 min | 10 min | 11 min | CC1=NN(c2ccccc2)C(=O)C1(NO)c1ccccc1 (stereo not drawn) [Compound 24, 4-(hydroxyamino)-5-methyl-2,4-diphenyl-2,4-dihydro-3H-pyrazol-3-one]
4 | 65 min | 42 min | 45 min | CC(C)N1N=C(c2ccccc2F)C(C)(NO)C1=O (stereo not drawn) [Compound 26, 5-(2-fluorophenyl)-4-(hydroxyamino)-2-iso-propyl-4-methyl-2,4-dihydro-3H-pyrazol-3-one]
5 | 23 min | 19 min | 21 min | CC1=NN(C)C(=O)C1(NO)c1ccc(F)cc1 (stereo not drawn) [Compound 27, 4-(4-fluorophenyl)-4-(hydroxyamino)-2,5-dimethyl-2,4-dihydro-3H-pyrazol-3-one]
6 | 84 min | 32 min | 22 min | CC1=NN(C(C)C)C(=O)C1(NO)c1ccccc1 (stereo not drawn) [Compound 30, 4-(hydroxyamino)-1-isopropyl-3-methyl-4-phenyl-1H-pyrazol-5(4H)-one]
7 | 201 min | 66 min | 59 min | CCC1(NO)C(=O)N(C)N=C1c1ccccc1F (stereo not drawn) [Compound 31, 4-ethyl-5-(2-fluorophenyl)-4-(hydroxyamino)-2-methyl-2,4-dihydro-3H-pyrazol-3-one]
8 | 148 min | 64 min | 100 min | CC(C)N1N=C(c2ccc(S(C)(=O)=O)cc2)C(C)(NO)C1=O (stereo not drawn) [Compound 32, 4-(hydroxyamino)-2-iso-propyl-4-methyl-5-(4-(methylsulfonyl)phenyl)-2,4-dihydro-3H-pyrazol-3-one]
9 | 100 min | 175 min | 130 min | CC1=NN(c2ccc(S(C)(=O)=O)cc2)C(=O)C1(C)NO (stereo not drawn) [Compound 33, 4-(hydroxyamino)-4,5-dimethyl-2-(4-(methylsulfonyl)phenyl)-2,4-dihydro-3H-pyrazol-3-one]
10 | 44 min | 79 min | 76 min | CN1N=C(c2ccc([S+]([O-])C(F)(F)F)cc2)C(C)(NO)C1=O (stereo not drawn) [Compound 35, 4-(hydroxyamino)-2,4-dimethyl-5-(4-((trifluoromethyl)sulfinyl)phenyl)-2,4-dihydro-3H-pyrazol-3-one]
11 | 133 min | 300 min | 152 min | CSc1ccc(C2=NN(C)C(=O)C2(C)NO)cc1 (stereo not drawn) [Compound 36, 4-(hydroxyamino)-2,4-dimethyl-5-(4-(methylthio)phenyl)-2,4-dihydro-3H-pyrazol-3-one]
12 | 3 min | 5 min | 8 min | CC1=NN(C)C(=O)C1(NO)c1ccc(S(C)(=O)=O)cc1 (stereo not drawn) [Compound 37, 4-(hydroxyamino)-2,5-dimethyl-4-(4-(methylsulfonyl)phenyl)-2,4-dihydro-3H-pyrazol-3-one]
13 | 33 min | 54 min | 46 min | CN1N=C(c2ccc([S+](C)[O-])c(F)c2)C(C)(NO)C1=O (stereo not drawn) [Compound 38, 5-(3-fluoro-4-(methylsulfinyl)phenyl)-4-(hydroxyamino)-2,4-dimethyl-2,4-dihydro-3H-pyrazol-3-one]
14 | 59 min | 134 min | 60 min | Cc1cc(C2=NN(C)C(=O)C2(C)NO)ccc1[S+](C)[O-] (stereo not drawn) [Compound 39, 4-(hydroxyamino)-2,4-dimethyl-5-(3-methyl-4-(methylsulfinyl)phenyl)-2,4-dihydro-3H-pyrazol-3-one]
15 | 38 min | 64 min | 54 min | Cc1cc(C2=NN(C)C(=O)C2(C)NO)ccc1S(C)(=O)=O (stereo not drawn) [Compound 41, 4-(hydroxyamino)-2,4-dimethyl-5-(3-methyl-4-(methylsulfonyl)phenyl)-2,4-dihydro-3H-pyrazol-3-one]
16 | 5 min | 9 min | 6 min | CO/N=C(\C)C1(NO)C(=O)N(C)N=C1c1ccc(S(C)(=O)=O)cc1 (stereo not drawn) [Compound 42, 4-(hydroxyamino)-4-(1-(methoxyimino)ethyl)-2-methyl-5-(4-(methylsulfonyl)phenyl)-2,4-dihydro-3H-pyrazol-3-one]

Row | half-life at 5 μM [1] | half-life at 5 μM [2] | half-life at 5 μM [3] | SMILES
17 | 23 min | 25 min | 35 min | COc1ccc(C2(NO)C(=O)N(C)N=C2C)cc1 (stereo not drawn) [Compound 43, 4-(hydroxyamino)-4-(4-methoxyphenyl)-1,3-dimethyl-1H-pyrazol-5(4H)-one]
18 | 31 min | 25 min | 40 min | CN1N=C(c2cc(F)c(S(C)(=O)=O)c(F)c2)C(C)(NO)C1=O (stereo not drawn) [Compound 45, 5-(3,5-difluoro-4-(methylsulfonyl)phenyl)-4-(hydroxyamino)-2,4-dimethyl-2,4-dihydro-3H-pyrazol-3-one]
19 | 12 min | 9 min | 11 min | CO/N=C(\C)C1(NO)C(=O)N(C)N=C1c1ccccc1 (stereo not drawn) [Compound 46, 4-(hydroxyamino)-4-(1-(methoxyimino)ethyl)-2-methyl-5-phenyl-2,4-dihydro-3H-pyrazol-3-one]
20 | 256 min | 350 min | 480 min | COc1ccc(C2=NN(C)C(=O)C2(C)NO)cc1 (stereo not drawn) [Compound 53, 4-(hydroxyamino)-3-(4-methoxyphenyl)-1,4-dimethyl-1H-pyrazol-5(4H)-one]
21 | 150 min | 80 min | 77 min | CN1N=C(c2ccc(OC(F)(F)F)cc2)C(C)(NO)C1=O (stereo not drawn) [Compound 59, 4-(hydroxyamino)-1,4-dimethyl-3-(4-(trifluoromethoxy)phenyl)-1-pyrazol-5(4H)-one]
22 | 16 min | 6 min | 8 min | CO/N=C(\C)C1(NO)C(=O)N(C)N=C1c1ccc(F)cc1 (stereo not drawn) [Compound 64, 3-(4-fluorophenyl)-4-(hydroxyamino)-4-(1-(methoxyimino)ethyl)-1-methyl-1H-pyrazol-5(4H)-one]
23 | 7 min | 7 min | 10 min | CC1=NN(C)C(=O)C1(NO)c1ccc(Cl)cc1 (stereo not drawn) [Compound 66, 4-(4-chlorophenyl)-4-(hydroxyamino)-1,3-dimethyl-1H-pyrazol-5(4H)-one]
24 | 78 min | 106 min | 59 min | CN1N=C(c2ccc(SC(F)(F)F)cc2)C(C)(NO)C1=O (stereo not drawn) [Compound 67, 4-(hydroxyamino)-1,4-dimethyl-3-(4-((trifluoromethyl)thio)phenyl)-1H-pyrazol-5(4H)-one]
25 | 27 min | 43 min | 31 min | CN1N=C(c2ccc(S(C)(=O)=O)c(Cl)c2)C(C)(NO)C1=O (stereo not drawn) [Compound 70, 3-(3-Chloro-4-methanesulfonylphenyl)-4-(hydroxyamino)-1,4-dimethyl-4,5-dihydro-1H-pyrazol-5-one]
26 | 71 min | 3 min | 58 min | COC(=O)c1ccc(C2=NN(C)C(=O)C2(C)NO)cc1 (stereo not drawn) [Compound 71, Methyl 4-[4-(hydroxyamino)-1,4 dimethyl-5-oxo-4,5-dihydro-1H-pyrazol-3-yl]benzoate]
27 | 12 min | 9 min | 13 min | CN1N=C(c2ccc(S(C)(=O)=NC(=O)C(F)(F)F)cc2)C(C)(NO)C1=O (stereo not drawn) [Compound 72, 2,2,2-Trifluoro-N-({4-[4-(hydroxyamino)-1,4-dimethyl-5-oxo-4,5-dihydro-1H-pyrazol-3-yl]phenyl}(methyl)oxo-λ^6-sulfanylidene)acetamide]
28 | 13 min | 18 min | 14 min | COc1ccc(C2(NO)C(=O)N(C)N=C2C)cc1OC (stereo not drawn) [Compound 73, 4-(3,4-Dimethoxyphenyl)-4-(hydroxyamino)-1,3-dimethyl-4,5-dihydro-1H-pyrazol-5-one]
29 | 175 min | 243 min | 183 min | CN1N=C(c2ccc(C(=O)O)cc2)C(C)(NO)C1=O (stereo not drawn) [Compound 74, 4-[4-(Hydroxyamino)-1,4-dimethyl-5-oxo-4,5-dihydro-1H-pyrazol-3-yl]benzoic acid]
30 | 37 min | 62 min | 40 min | COc1cc(C2=NN(C)C(=O)C2(C)NO)ccc1S(C)(=O)=O (stereo not drawn) [Compound 77, 4-(Hydroxyamino)-3-(4-methanesulfonyl-3-methoxyphenyl)-1,4-dimethyl-4,5-dihydro-1H-pyrazol-5-one]
31 | 49 min | 85 min | 49 min | Cc1cc(C2=NN(C)C(=O)C2(C)NO)cc(C)c1S(C)(=O)=O (stereo not drawn) [Compound 79, 4-(Hydroxyamino)-3-(4-methanesulfonyl-3,5-dimethylphenyl)-1,4-dimethyl-4,5-dihydro-1H-pyrazol-5-one]
